According to patent US20240210412A1, “SULFONYL-TRIAZOLE COMPOUNDS USEFUL AS LIGANDS AND INHIBITORS OF PROSTAGLANDIN REDUCTASE 2” (University of Virginia Patent Foundation, priority 2021, published 2024):

Legend:
Assay in all cases: SILAC LC-MS ABPP
Type in all cases: cell-based
Details in all cases: 25 μM 2 h, live DM93 cells
[1] = target: T1, O43172 (Homo sapiens, UniProt O43172)
T1 construct: endogenous in cells; host or cells: DM93
Outline: (§1)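 DM93 melanoma cells under SILAC: light treated with DMSO, heavy with SuTEx ligand (25 μM, 2 h, 37 °C) in serum-free medium, then HHS-475 alkyne probe (100 μM, 2 h, 37 °C). Soluble proteomes clicked to desthiobiotin-PEG3-azide by CuAAC, mixed 1:1, trypsinised, avidin-enriched; probe-modified tyrosine peptides quantified by LC-MS/MS.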

[2] = target: T2, Q9NYF8 (Homo sapiens, UniProt Q9NYF8)
T2 construct: endogenous in cells; host or cells: DM93 cells (SILAC)
Outline: as §1

[3] = target: T3, Q7Z460 (Homo sapiens, UniProt Q7Z460)
T3 construct: endogenous in cells; host or cells: DM93 cells (SILAC), live-cell treatment
Outline: as §1

[4] = target: T4, P62277 (Homo sapiens, UniProt P62277)
T4 construct: performing SuTEx compound screening directly in cells; endogenous in cells; host or cells: DM93 cells (SILAC)
Outline: as §1

[5] = target: T5, Q6N069 (Homo sapiens, UniProt Q6N069)
T5 construct: performing SuTEx compound screening directly in cells; endogenous in cells; host or cells: DM93 cells (SILAC), soluble fraction
Outline: as §1

[6] = target: T6, P51784 (Homo sapiens, UniProt P51784)
T6 construct: endogenous in cells; host or cells: DM93 cells (SILAC)
Outline: as §1

[7] = target: T7, Q969T9 (Homo sapiens, UniProt Q969T9)
T7 construct: endogenous in cells; host or cells: DM93 cells (SILAC), live-cell treatment
Outline: as §1

[8] = target: T8, Q14566 (Homo sapiens, UniProt Q14566)
T8 construct: performing SuTEx compound screening directly in cells; endogenous in cells; host or cells: DM93 cells (SILAC), soluble fraction
Outline: as §1

[9] = target: T9, Q15654 (Homo sapiens, UniProt Q15654)
T9 construct: performing SuTEx compound screening directly in cells; endogenous in cells; host or cells: DM93 cells (SILAC), soluble fraction
Outline: as §1

[10] = target: T10, P22059 (Homo sapiens, UniProt P22059)
T10 construct: endogenous in cells; host or cells: DM93 (SILAC)
Outline: as §1

[11] = target: T11, Q15154 (Homo sapiens, UniProt Q15154)
T11 construct: performing SuTEx compound screening directly in cells; endogenous in cells; host or cells: DM93 cells (SILAC), soluble fraction
Outline: as §1

[12] = target: T12, P20839 (Homo sapiens, UniProt P20839)
T12 construct: endogenous in cells; host or cells: DM93 (SILAC)
Outline: as §1

[13] = target: T13, Q5T6F2 (Homo sapiens, UniProt Q5T6F2)
T13 construct: performing SuTEx compound screening directly in cells; endogenous in cells; host or cells: DM93 cells (SILAC), soluble fraction
Outline: as §1

[14] = target: T14, Q04323 (Homo sapiens, UniProt Q04323)
T14 construct: performing SuTEx compound screening directly in cells; endogenous in cells; host or cells: DM93 cells (SILAC)
Outline: as §1

[15] = target: T15, Q6NZY4 (Homo sapiens, UniProt Q6NZY4)
T15 construct: endogenous in cells; host or cells: DM93 cells (SILAC), live-cell treatment
Outline: as §1

[16] = target: T16, Q9P2E9 (Homo sapiens, UniProt Q9P2E9)
T16 construct: endogenous in cells; host or cells: DM93 cells (SILAC)
Outline: as §1

[17] = target: T17, Q13330 (Homo sapiens, UniProt Q13330)
T17 construct: performing SuTEx compound screening directly in cells; endogenous in cells; host or cells: DM93 cells (SILAC), soluble fraction
Outline: as §1

[18] = target: T18, P17066 (Homo sapiens, UniProt P17066)
T18 construct: Probe-modified proteins from the soluble fraction were conjugated to a desthiobiotin-azide tag; endogenous in cells; host or cells: DM93 (SILAC)
Outline: as §1

T1 sequence (O43172 whole entry): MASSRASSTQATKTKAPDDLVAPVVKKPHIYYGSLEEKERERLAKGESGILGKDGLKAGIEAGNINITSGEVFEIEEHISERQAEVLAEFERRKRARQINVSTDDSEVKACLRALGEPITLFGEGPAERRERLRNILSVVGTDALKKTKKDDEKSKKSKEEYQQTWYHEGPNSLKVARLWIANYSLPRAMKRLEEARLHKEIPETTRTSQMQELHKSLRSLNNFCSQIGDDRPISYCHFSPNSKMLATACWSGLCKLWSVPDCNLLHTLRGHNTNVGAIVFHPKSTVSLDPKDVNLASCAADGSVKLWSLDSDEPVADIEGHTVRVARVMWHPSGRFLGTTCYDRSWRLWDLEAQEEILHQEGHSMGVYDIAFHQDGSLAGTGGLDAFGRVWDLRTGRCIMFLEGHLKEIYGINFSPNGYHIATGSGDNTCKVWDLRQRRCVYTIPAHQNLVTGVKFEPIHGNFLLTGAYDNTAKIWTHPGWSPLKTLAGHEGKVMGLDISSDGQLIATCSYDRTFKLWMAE
T13 sequence (Q5T6F2 whole entry): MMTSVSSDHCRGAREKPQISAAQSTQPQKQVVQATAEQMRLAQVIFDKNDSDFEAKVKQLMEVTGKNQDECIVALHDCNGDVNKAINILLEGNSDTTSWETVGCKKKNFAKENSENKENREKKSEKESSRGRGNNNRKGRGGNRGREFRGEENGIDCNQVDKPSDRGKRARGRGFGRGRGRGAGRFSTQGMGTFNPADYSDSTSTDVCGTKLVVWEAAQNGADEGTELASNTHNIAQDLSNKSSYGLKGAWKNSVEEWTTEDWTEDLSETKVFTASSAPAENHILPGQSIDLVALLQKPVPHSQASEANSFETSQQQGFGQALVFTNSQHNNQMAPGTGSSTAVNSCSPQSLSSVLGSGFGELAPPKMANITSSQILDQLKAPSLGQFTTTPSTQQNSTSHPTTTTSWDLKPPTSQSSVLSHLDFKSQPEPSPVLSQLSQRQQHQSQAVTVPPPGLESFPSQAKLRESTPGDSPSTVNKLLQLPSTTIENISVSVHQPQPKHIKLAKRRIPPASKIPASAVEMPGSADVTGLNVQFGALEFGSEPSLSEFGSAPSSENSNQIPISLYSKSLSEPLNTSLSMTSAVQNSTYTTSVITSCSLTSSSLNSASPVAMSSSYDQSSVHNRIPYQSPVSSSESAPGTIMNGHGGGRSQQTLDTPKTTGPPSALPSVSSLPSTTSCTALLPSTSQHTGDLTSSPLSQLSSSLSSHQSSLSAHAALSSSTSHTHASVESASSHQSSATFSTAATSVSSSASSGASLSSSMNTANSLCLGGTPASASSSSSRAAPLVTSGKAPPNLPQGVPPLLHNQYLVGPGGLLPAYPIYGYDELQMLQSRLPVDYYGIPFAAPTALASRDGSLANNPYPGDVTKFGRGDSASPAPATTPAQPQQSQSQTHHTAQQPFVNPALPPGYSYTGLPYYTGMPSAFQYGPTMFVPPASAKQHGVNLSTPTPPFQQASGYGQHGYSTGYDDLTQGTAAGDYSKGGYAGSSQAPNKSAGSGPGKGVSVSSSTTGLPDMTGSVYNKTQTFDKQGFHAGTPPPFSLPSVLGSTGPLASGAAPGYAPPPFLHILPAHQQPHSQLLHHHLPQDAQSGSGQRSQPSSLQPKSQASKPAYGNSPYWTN
T3 sequence (Q7Z460 whole entry): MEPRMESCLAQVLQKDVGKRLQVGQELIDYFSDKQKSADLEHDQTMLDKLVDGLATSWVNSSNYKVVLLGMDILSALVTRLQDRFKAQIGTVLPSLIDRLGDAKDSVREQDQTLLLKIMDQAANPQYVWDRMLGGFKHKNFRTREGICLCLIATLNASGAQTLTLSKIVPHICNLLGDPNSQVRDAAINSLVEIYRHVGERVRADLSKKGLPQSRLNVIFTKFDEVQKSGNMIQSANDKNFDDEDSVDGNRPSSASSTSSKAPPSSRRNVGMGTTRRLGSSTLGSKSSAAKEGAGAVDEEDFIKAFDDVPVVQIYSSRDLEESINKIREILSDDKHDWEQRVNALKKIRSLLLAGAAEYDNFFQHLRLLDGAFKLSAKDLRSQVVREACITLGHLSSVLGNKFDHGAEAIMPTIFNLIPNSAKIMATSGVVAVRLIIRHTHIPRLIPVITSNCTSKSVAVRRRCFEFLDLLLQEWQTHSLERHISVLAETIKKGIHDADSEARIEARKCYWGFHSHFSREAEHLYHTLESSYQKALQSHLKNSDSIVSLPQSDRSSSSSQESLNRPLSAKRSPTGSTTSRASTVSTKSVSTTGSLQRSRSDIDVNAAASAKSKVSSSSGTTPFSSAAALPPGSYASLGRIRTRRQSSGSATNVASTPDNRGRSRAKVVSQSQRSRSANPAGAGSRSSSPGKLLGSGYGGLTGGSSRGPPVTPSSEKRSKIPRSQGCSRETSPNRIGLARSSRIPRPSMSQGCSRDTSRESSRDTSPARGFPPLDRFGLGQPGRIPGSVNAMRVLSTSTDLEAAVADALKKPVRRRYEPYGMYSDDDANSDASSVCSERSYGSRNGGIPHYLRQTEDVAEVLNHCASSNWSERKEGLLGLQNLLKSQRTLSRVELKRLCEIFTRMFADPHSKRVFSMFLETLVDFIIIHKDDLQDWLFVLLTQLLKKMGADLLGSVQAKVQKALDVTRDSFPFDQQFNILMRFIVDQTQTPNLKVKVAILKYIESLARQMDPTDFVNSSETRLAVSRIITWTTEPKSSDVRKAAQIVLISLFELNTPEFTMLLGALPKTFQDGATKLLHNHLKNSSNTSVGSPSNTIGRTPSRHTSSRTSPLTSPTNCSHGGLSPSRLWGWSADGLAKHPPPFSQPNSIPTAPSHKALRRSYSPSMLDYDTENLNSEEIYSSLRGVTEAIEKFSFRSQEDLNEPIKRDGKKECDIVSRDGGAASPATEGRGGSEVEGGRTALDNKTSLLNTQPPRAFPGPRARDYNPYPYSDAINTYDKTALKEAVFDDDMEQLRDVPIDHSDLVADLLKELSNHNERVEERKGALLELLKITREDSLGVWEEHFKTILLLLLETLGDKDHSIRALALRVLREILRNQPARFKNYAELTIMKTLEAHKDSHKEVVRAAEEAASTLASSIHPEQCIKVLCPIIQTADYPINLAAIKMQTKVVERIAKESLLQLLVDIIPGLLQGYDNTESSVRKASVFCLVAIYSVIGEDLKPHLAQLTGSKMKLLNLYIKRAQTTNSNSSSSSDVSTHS
T6 sequence (P51784 whole entry): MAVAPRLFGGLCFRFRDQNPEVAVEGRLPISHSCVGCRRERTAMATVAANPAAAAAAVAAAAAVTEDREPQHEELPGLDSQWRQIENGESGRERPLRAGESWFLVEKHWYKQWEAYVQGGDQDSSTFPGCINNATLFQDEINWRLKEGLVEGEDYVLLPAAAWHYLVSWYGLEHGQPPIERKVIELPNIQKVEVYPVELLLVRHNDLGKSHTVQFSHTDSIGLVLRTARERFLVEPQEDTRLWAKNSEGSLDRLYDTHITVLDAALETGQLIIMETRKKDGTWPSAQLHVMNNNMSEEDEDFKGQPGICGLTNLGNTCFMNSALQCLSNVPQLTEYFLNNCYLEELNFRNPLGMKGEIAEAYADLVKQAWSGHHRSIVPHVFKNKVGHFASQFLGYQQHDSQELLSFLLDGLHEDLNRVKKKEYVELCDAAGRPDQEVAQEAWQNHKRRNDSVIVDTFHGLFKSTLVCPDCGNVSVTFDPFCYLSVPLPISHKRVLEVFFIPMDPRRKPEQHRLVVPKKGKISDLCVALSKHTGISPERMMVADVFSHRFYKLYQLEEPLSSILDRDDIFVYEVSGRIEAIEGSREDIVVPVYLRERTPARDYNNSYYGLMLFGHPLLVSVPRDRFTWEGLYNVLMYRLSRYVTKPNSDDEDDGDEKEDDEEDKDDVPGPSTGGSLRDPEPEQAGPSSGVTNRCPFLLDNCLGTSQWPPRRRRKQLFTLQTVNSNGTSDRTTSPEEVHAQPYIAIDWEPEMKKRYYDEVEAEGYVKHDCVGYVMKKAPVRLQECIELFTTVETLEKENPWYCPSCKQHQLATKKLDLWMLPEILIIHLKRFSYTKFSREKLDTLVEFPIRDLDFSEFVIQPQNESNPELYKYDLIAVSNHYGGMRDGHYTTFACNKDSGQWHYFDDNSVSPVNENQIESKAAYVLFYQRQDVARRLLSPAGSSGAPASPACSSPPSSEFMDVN
T10 sequence (P22059 whole entry): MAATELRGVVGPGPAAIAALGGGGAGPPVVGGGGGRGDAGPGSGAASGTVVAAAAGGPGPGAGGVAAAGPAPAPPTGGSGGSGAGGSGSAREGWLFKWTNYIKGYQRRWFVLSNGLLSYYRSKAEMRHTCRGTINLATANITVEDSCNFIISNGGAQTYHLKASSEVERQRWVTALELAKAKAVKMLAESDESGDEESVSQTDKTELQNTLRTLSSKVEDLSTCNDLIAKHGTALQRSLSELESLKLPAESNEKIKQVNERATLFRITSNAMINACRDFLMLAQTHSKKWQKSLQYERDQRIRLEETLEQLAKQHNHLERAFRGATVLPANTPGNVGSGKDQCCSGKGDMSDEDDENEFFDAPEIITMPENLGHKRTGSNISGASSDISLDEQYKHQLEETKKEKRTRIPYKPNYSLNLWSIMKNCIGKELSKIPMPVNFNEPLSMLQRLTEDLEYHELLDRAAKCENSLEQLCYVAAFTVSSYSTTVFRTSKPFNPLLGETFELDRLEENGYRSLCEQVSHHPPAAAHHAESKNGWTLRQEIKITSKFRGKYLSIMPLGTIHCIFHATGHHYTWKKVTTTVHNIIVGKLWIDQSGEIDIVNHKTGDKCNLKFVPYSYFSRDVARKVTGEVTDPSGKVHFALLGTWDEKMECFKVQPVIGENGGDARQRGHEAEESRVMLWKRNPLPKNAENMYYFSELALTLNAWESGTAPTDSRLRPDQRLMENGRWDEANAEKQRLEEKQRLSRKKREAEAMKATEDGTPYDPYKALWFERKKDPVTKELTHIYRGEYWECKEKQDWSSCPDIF

Compound: O=C(NC1CC1)c1ccc(S(=O)(=O)n2cncn2)cc1 [HHS-0101, 4-((1H-1,2,4-triazol-1-yl)sulfonyl)-N-cyclopropylbenzamide]
- liganded tyrosine site 31 [1]: HHS0101.Y|HHS0301.Y (tyrosine sites that showed >80% reductions (SR >5) in probe labeling in cells treated with compounds (liganded sites))
- liganded tyrosine site 32 [1]: HHS0101.Y|HHS0301.Y (tyrosine sites that showed >80% reductions (SR >5) in probe labeling in cells treated with compounds (liganded sites))
- liganded tyrosine site 322 [2]: HHS0101.Y|HHS0201.Y|HHS0301.Y|HHS0401.Y (tyrosine sites that showed >80% reductions (SR >5) in probe labeling in cells treated with compounds (liganded sites))
- liganded tyrosine site 1267 [3]: HHS0101.Y|HHS0301.Y|HHS0401.Y (tyrosine sites that showed >80% reductions (SR >5) in probe labeling in cells treated with compounds (liganded sites))
- liganded tyrosine site 38 [4]: HHS0101.Y (tyrosine sites that showed >80% reductions (SR >5) in probe labeling in cells treated with compounds (liganded sites))
- liganded tyrosine site 86 [5]: HHS0101.Y|HHS0701.Y (tyrosine sites that showed >80% reductions (SR >5) in probe labeling in cells treated with compounds (liganded sites))
- liganded tyrosine site 396 [6]: HHS0101.Y (tyrosine sites that showed >80% reductions (SR >5) in probe labeling in cells treated with compounds (liganded sites))
- liganded tyrosine site 232 [7]: HHS0101.Y|HHS0701.Y (tyrosine sites that showed >80% reductions (SR >5) in probe labeling in cells treated with compounds (liganded sites))

Compound: O=C(NCC1CC1)c1ccc(S(=O)(=O)n2cncn2)cc1 [HHS-0201, 4-((1H-1,2,4-triazol-1-yl)sulfonyl)-N-(cyclopropylmethyl)benzamide]
- liganded tyrosine site 783 [8]: HHS0201.Y (tyrosine sites that showed >80% reductions (SR >5) in probe labeling in cells treated with compounds (liganded sites))
- liganded tyrosine site 157 [9]: HHS0201.Y (tyrosine sites that showed >80% reductions (SR >5) in probe labeling in cells treated with compounds (liganded sites))
- liganded tyrosine site 764 [10]: HHS0201.Y|HHS0701.Y (tyrosine sites that showed >80% reductions (SR >5) in probe labeling in cells treated with compounds (liganded sites))

Compound: O=C(NCc1ccccc1)c1ccc(S(=O)(=O)n2cncn2)cc1 [HHS-0401, 4-((1H-1,2,4-triazol-1-yl)sulfonyl)-N-benzylbenzamide]
- liganded tyrosine site 1424 [11]: HHS0401.Y|HHS0701.Y (tyrosine sites that showed >80% reductions (SR >5) in probe labeling in cells treated with compounds (liganded sites))
- liganded tyrosine site 233 [12]: HHS0401.Y (tyrosine sites that showed >80% reductions (SR >5) in probe labeling in cells treated with compounds (liganded sites))
- liganded tyrosine site 823 [13]: HHS0401.Y (tyrosine sites that showed >80% reductions (SR >5) in probe labeling in cells treated with compounds (liganded sites))
- liganded tyrosine site 825 [13]: HHS0401.Y (tyrosine sites that showed >80% reductions (SR >5) in probe labeling in cells treated with compounds (liganded sites))

Compound: O=C(c1ccc(S(=O)(=O)n2cncn2)cc1)N1CCC(c2ccccc2)CC1 [HHS-0701, (4-((1H-1,2,4-triazol-1-yl)sulfonyl)phenyl)(4-phenylpiperidin-1-yl)methanone]
- liganded tyrosine site 179 [14]: HHS0701.Y (tyrosine sites that showed >80% reductions (SR >5) in probe labeling in cells treated with compounds (liganded sites))
- liganded tyrosine site 258 [15]: HHS0701.Y (tyrosine sites that showed >80% reductions (SR >5) in probe labeling in cells treated with compounds (liganded sites))

Compound: O=C(NC1CCCCC1)c1ccc(S(=O)(=O)n2cncn2)cc1 [HHS-0301, 4-((1H-1,2,4-triazol-1-yl)sulfonyl)-N-cyclohexylbenzamide]
- liganded tyrosine site 647 [16]: HHS0301.Y (tyrosine sites that showed >80% reductions (SR >5) in probe labeling in cells treated with compounds (liganded sites))
- liganded tyrosine site 22 [17]: HHS0301.Y (tyrosine sites that showed >80% reductions (SR >5) in probe labeling in cells treated with compounds (liganded sites))
- liganded tyrosine site 373 [18]: HHS0301.Y (tyrosine sites that showed >80% reductions (SR >5) in probe labeling in cells treated with compounds (liganded sites))
